Patent publication US11840686B2, “Modulation of prekallikrein (PKK) expression” (Ionis Pharmaceuticals, Inc., priority 2013, dated 2023)
pIC50: −log10 of the molar value. Strand notation (5' to 3'): a small letter for the sugar, then the base; units joined by * are phosphorothioate-linked, units joined directly phosphodiester-linked; [ ] holds rarer units or linkages, { } end groups; capitals alone tell only the bases. e = 2'-O-(2-methoxyethyl) (MOE); k = constrained ethyl (cEt); [5mC] = 5-methylcytosine; d = 2'-deoxy (DNA)

Tests used:
human PKK mRNA [1] = test: Antisense inhibition of human PKK mRNA in HepaRG cells, 1,000 nM, MOE/deoxy/cEt oligonucleotides (Example 3); type: cell-based
In short: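 HepaRG cells at 20,000 per well electroporated with 1,000 nM 16-mer MOE/cEt/deoxy gapmers (phosphorothioate, 5-methylcytosine). After about 24 h, PKK mRNA measured by qRT-PCR with primer probe set RTS3454, normalized to RIBOGREEN total RNA. Reported as percent inhibition versus untreated cells.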

human PKK mRNA [2] = test: Dose-dependent antisense inhibition of human PKK in HepaRG cells, 0.11-3.00 uM (Example 6); type: cell-based; conditions: for pIC50: 0.11-3.00 μM; for percent inhibition of PKK mRNA, 0.11 μM / percent inhibition of PKK mRNA, 0.33 μM / percent inhibition of PKK mRNA, 1.00 μM / percent inhibition of PKK mRNA, 3.00 μM: electroporation, approx. 16 hours, relative to untreated control cells
Protocol: Cells were plated at a density of 20,000 cells per well and transfected using electroporation with 0.11 μM, 0.33 μM, 1.00 μM, and 3.00 μM concentrations of antisense oligonucleotide. After a treatment period of approximately 16 hours, RNA was isolated from the cells and PKK mRNA levels were measured by quantitative real-time PCR. Human PKK primer probe set RTS3454 was used to measure mRNA levels. PKK mRNA levels were adjusted according to total RNA content, as measured by RIBOGREEN®. The antisense oligonucleotides were tested in a series of experiments that had similar culture conditions.
The half maximal inhibitory concentration (IC50) of each oligonucleotide is also presented.

[3] = Table 30, human PKK mRNA, HepaRG cells, 1,000 nM antisense oligonucleotide
[4] = Table 20, HepaRG cells, electroporation with 1,000 nM antisense oligonucleotide, approximately 24 hours, PKK mRNA by RT-PCR (RTS3454), relative to untreated control cells
[5] = Table 22 experiment, HepaRG cells, electroporation with 1,000 nM antisense oligonucleotide, approx. 24 hours, PKK mRNA by RT-PCR (RTS3454), relative to untreated control cells
[6] = HepaRG cells, electroporation with 1,000 nM antisense oligonucleotide, approximately 24 hours, primer probe set RTS3454, relative to untreated control cells, experiment of Table 23
[7] = HepaRG cells, electroporation with 1,000 nM antisense oligonucleotide, approx. 24 hours, PKK mRNA by RT-PCR (RTS3454), relative to untreated control cells, Table 25 experiment
[8] = Table 19, HepaRG cells, electroporation with 1,000 nM antisense oligonucleotide, approximately 24 hours, PKK mRNA by RT-PCR (RTS3454), relative to untreated control cells
[9] = HepaRG cells, electroporation with 1,000 nM antisense oligonucleotide, approx. 24 hours, PKK mRNA by RT-PCR (RTS3454), relative to untreated control cells, Table 26 experiment
[10] = HepaRG cells, electroporation with 1,000 nM antisense oligonucleotide, approximately 24 hours, primer probe set RTS3454, relative to untreated control cells, experiment of Table 24
[11] = Table 27, HepaRG cells, 1,000 nM antisense oligonucleotide, human PKK mRNA

| Substance | % inhibition (human PKK mRNA [1]; [3]) [%] | pIC50 (human PKK mRNA [2]) | percent inhibition of PKK mRNA, 0.11 μM (human PKK mRNA [2]) [%] | percent inhibition of PKK mRNA, 0.33 μM (human PKK mRNA [2]) [%] | percent inhibition of PKK mRNA, 1.00 μM (human PKK mRNA [2]) [%] | percent inhibition of PKK mRNA, 3.00 μM (human PKK mRNA [2]) [%] | % inhibition (human PKK mRNA [1]; [4]) [%] | % inhibition (human PKK mRNA [1]; [5]) [%] | % inhibition (human PKK mRNA [1]; [6]) [%] | % inhibition (human PKK mRNA [1]; [7]) [%] | % inhibition (human PKK mRNA [1]; [8]) [%] | % inhibition (human PKK mRNA [1]; Table 21 experiment, HepaRG cells, electroporation with 1,000 nM antisense oligonucleotide, approx. 24 hours, PKK mRNA by RT-PCR (RTS3454), relative to untreated control cells) [%] | % inhibition (human PKK mRNA [1]; [9]) [%] | % inhibition (human PKK mRNA [1]; HepaRG cells, 1,000 nM antisense oligonucleotide, Table 29) [%] | % inhibition (human PKK mRNA [1]; [10]) [%] | % inhibition (human PKK mRNA [1]; [11]) [%] |
| --- | --- | --- | --- | --- | --- | --- | --- | --- | --- | --- | --- | --- | --- | --- | --- | --- |
| 548425 (antisense eA*eA*k[5mC]*dA*dG*dT*dA*dT*d[5mC]*dA*d[5mC]*dT*dG*kT*k[5mC]*e[5mC]) [compound 548425] | 90 | 6.70 | 41 | 57 | 68 | 80 | – | – | – | – | – | – | – | – | – | – |
| 547843 (antisense e[5mC]*eA*k[5mC]*dT*dT*dA*dT*dT*dT*dG*dA*dT*dG*kA*k[5mC]*e[5mC]) [compound 547843] | – | 6.40 | 0 | 52 | 80 | 91 | 83 | 83 | – | – | – | – | – | – | – | – |
| 547942 (eG*eG*kT*dG*dT*dG*d[5mC]*d[5mC]*dA*d[5mC]*dT*dT*dT*k[5mC]*kA*eG; antisense) [compound 547942] | – | 6.52 | 25 | 51 | 91 | – | – | – | 85 | – | – | – | – | – | – | – |
| 547870 (antisense e[5mC]*eT*kA*dA*d[5mC]*d[5mC]*dT*dT*dA*dG*dA*d[5mC]*dA*k[5mC]*kA*eT) [compound 547870] | – | 6.22 | 0 | 44 | 80 | 97 | 89 | 83 | – | – | – | – | – | – | – | – |
| 548155 (e[5mC]*eG*kT*dG*d[5mC]*dT*dG*dA*dA*dA*dG*d[5mC]*dG*kG*kG*e[5mC]; antisense) [compound 548155] | – | 6.52 | 49 | 50 | 70 | 81 | – | – | – | 76 | – | – | – | – | – | – |
| 548106 (antisense e[5mC]*e[5mC]*kA*dT*dG*dT*dA*d[5mC]*dT*d[5mC]*dA*dG*d[5mC]*kG*kA*e[5mC]) [compound 548106] | – | – | 53 | 54 | 82 | 94 | – | – | – | – | 79 | – | – | – | – | – |
| 547943 (eT*eG*kG*dT*dG*dT*dG*d[5mC]*d[5mC]*dA*d[5mC]*dT*dT*kT*k[5mC]*eA; antisense) [compound 547943] | – | 6.70 | 33 | 70 | 87 | 90 | – | – | 83 | – | – | – | – | – | – | – |
| 547824 (e[5mC]*eG*kA*dT*dG*dT*dA*d[5mC]*dT*dT*dT*dT*dG*kG*k[5mC]*eA; antisense) [compound 547824] | – | – | 45 | 73 | 78 | – | – | – | – | – | – | 82 | – | – | – | – |
| 548195 (eT*eT*k[5mC]*dT*dG*d[5mC]*d[5mC]*dA*dA*d[5mC]*dA*dG*dT*kT*kT*e[5mC]; antisense) [compound 548195] | – | 6.10 | 5 | 23 | 61 | 76 | – | – | – | 84 | – | – | – | – | – | – |
| 548247 (antisense e[5mC]*eG*kA*dT*dT*dT*dT*d[5mC]*d[5mC]*dA*dT*dG*d[5mC]*kA*kT*eA) [compound 548247] | – | 6.30 | 16 | 50 | 62 | 82 | – | – | – | – | – | – | 56 | – | – | – |
| 548558 (antisense eA*eA*k[5mC]*dA*dT*dT*dG*dT*dG*dT*dA*dG*d[5mC]*kT*kG*e[5mC]) [compound 548558] | – | – | 53 | 61 | 78 | 95 | – | – | – | – | – | – | – | 75 | – | – |
| 548010 (eA*eG*kT*dG*dT*dT*dA*d[5mC]*dA*d[5mC]*dA*dA*dT*k[5mC]*kT*e[5mC]; antisense) [compound 548010] | – | 5.85 | 0 | 11 | 49 | 64 | – | – | – | – | – | – | – | – | 80 | – |
| 548343 (antisense eT*eA*kG*dT*dG*dA*dT*dA*dA*dG*dA*dG*d[5mC]*kT*kG*eG) [compound 548343] | – | – | 61 | 67 | 88 | 92 | – | – | – | – | – | – | – | – | – | 78 |
| 547859 (antisense e[5mC]*e[5mC]*kT*d[5mC]*dT*d[5mC]*dA*dT*dA*dT*d[5mC]*dA*dA*k[5mC]*kT*e[5mC]) [compound 547859] | – | 6.52 | 29 | 56 | 83 | 78 | 77 | 88 | – | – | – | – | – | – | – | – |
| 548046 (eT*eA*kT*d[5mC]*dA*dT*dG*dA*dT*dT*d[5mC]*d[5mC]*d[5mC]*kT*kT*e[5mC]; antisense) [compound 548046] | – | 6.15 | 7 | 35 | 64 | 77 | – | – | – | – | – | – | – | – | 84 | – |
| 548174 (eT*e[5mC]*kT*d[5mC]*dA*dG*dT*dT*dG*d[5mC]*dG*dA*d[5mC]*k[5mC]*kT*e[5mC]; antisense) [compound 548174] | – | 5.70 | 20 | 18 | 29 | 62 | – | – | – | 68 | – | – | – | – | – | – |
| 548348 (antisense eT*eG*kA*dG*dT*dG*dA*dT*dG*d[5mC]*d[5mC]*dT*dT*k[5mC]*k[5mC]*eA) [compound 548348] | – | 6.40 | 19 | 46 | 67 | 91 | – | – | – | – | – | – | – | – | – | 82 |
| 548265 (antisense e[5mC]*e[5mC]*kT*d[5mC]*dT*dT*dG*dA*dT*dT*dT*dG*dG*kG*k[5mC]*eA) [compound 548265] | – | – | 47 | 69 | 78 | 67 | – | – | – | – | – | – | 85 | – | – | – |
| 548278 (antisense eG*eG*kT*dT*d[5mC]*d[5mC]*d[5mC]*dT*dA*dG*d[5mC]*dG*dG*kT*k[5mC]*e[5mC]) [compound 548278] | – | 6.40 | 3 | 59 | 78 | 93 | – | – | – | – | – | – | 74 | – | – | – |
| 548128 (eA*eT*kT*dG*d[5mC]*d[5mC]*dT*dA*dG*dA*d[5mC]*dT*d[5mC]*kT*kG*eG; antisense) [compound 548128] | – | 5.96 | 14 | 29 | 49 | 66 | – | – | – | – | 55 | – | – | – | – | – |
| 548220 (eG*e[5mC]*kA*dG*dA*dA*dA*dT*d[5mC]*d[5mC]*dT*dG*dT*kG*k[5mC]*eA; antisense) [compound 548220] | – | < 5.52 | 0 | 0 | 0 | 6 | – | – | – | 69 | – | – | – | – | – | – |
| 548422 (antisense eG*eT*kA*dT*d[5mC]*dA*d[5mC]*dT*dG*dT*d[5mC]*d[5mC]*dT*kA*kT*eA) [compound 548422] | 69 | 6.15 | 0 | 32 | 71 | 93 | – | – | – | – | – | – | – | – | – | – |
